Measured values from US4150023A, “Hydrosoluble rifamycins and process for their preparation” (Intreprinderea de Antibiotice Iasi, priority 1977, dated 1979).
Values after ≈ are worked out from the molar mass of the structure shown. Structures can show the parent of a compound that is named as a salt.

Test system: not listed separately
Assay: physchem
Assay type: physicochemical
Conditions: not given
Experimental: When the work is carried out as in above mentioned examples, using 2 mol of sodium ethylhexanoate versus 1 mol of rifamycin derivative, the soluble forms of other derivatives, presented in Table 1, are obtained using the specific volumes of solvent, and resulting in the products characterized by the main proprieties tabulated.

Row | Structure (SMILES) | Solubility soluble form
1 | CO[C@H]1/C=C/O[C@@]2(C)Oc3c(C)c(O)c4c(O)c(c(C=NO)c(O)c4c3C2=O)NC(=O)/C(C)=C\C=C\[C@H](C)[C@H](O)[C@@H](C)[C@@H](O)[C@@H](C)[C@H](OC(C)=O)[C@@H]1C [Example 7, 3-formylrifamycin SV oxime] | over 100 mg/ml
2 | CO[C@H]1/C=C/O[C@@]2(C)Oc3c(C)c(O)c4c(O)c(c(C=NO)c(O)c4c3C2=O)NC(=O)/C(C)=C\C=C\[C@H](C)[C@H](O)[C@@H](C)[C@@H](O)[C@@H](C)[C@H](OC(C)=O)[C@@H]1C [Example 8, 3-formylrifamycin SV oxime (K salt)] | 25 mg/mL

Same assay, conditions: Solubility as such

Row | Structure (SMILES) | solubility
3 | CO[C@H]1/C=C/O[C@@]2(C)Oc3c(C)c(O)c4c(O)c(c(C=NNc5ccc(-c6ccc(C)cc6)nn5)c(O)c4c3C2=O)NC(=O)/C(C)=C\C=C\[C@H](C)[C@H](O)[C@@H](C)[C@@H](O)[C@@H](C)[C@H](OC(C)=O)[C@@H]1C [3-[3'-(p-tolyl)-pyridazinyl-6'-hydrazonomethyl]-rifamycin SV, reference compound] | 270 µg/mL (≈ 0.297 mM)
4 | CCON=Cc1c2c(O)c3c(O)c(C)c4c(c3c1O)C(=O)[C@@](C)(O/C=C/[C@H](OC)[C@@H](C)[C@@H](OC(C)=O)[C@H](C)[C@H](O)[C@H](C)[C@@H](O)[C@@H](C)/C=C/C=C(/C)C(=O)N2)O4 [3-(ethyloximinomethyl)rifamycin SV, reference compound] | 120 µg/mL (≈ 0.156 mM)
5 | CO[C@H]1/C=C/O[C@@]2(C)Oc3c(C)c(O)c4c(O)c(c(C=NO)c(O)c4c3C2=O)NC(=O)/C(C)=C\C=C\[C@H](C)[C@H](O)[C@@H](C)[C@@H](O)[C@@H](C)[C@H](OC(C)=O)[C@@H]1C [3-formylrifamycin SV oxime, reference compound] | 5500 µg/mL (≈ 7.42 mM)
6 | CO[C@H]1/C=C/O[C@@]2(C)Oc3c(C)c(O)c4c(O)c(c(C=NNc5ccc(-c6ccc(C)c(C)c6)nn5)c(O)c4c3C2=O)NC(=O)/C(C)=C\C=C\[C@H](C)[C@H](O)[C@@H](C)[C@@H](O)[C@@H](C)[C@H](OC(C)=O)[C@@H]1C [3-[3'-(3",4"-dimethylphenyl)-pyridazinyl-6'-hydrazonomethyl]-rifamycin SV, reference compound] | < 100 µg/mL
7 | CO[C@H]1/C=C/O[C@@]2(C)Oc3c(C)c(O)c4c(O)c(c(C=NOCCBr)c(O)c4c3C2=O)NC(=O)/C(C)=C\C=C\[C@H](C)[C@H](O)[C@@H](C)[C@@H](O)[C@@H](C)[C@H](OC(C)=O)[C@@H]1C [3-(2-bromethyloximinomethyl)-rifamycin SV, reference compound] | 2950 µg/mL (≈ 3.48 mM)
8 | CO[C@H]1/C=C/O[C@@]2(C)Oc3c(C)c(O)c4c(O)c(c(C=NNC(=O)COc5ccccc5)c(O)c4c3C2=O)NC(=O)/C(C)=C\C=C\[C@H](C)[C@H](O)[C@@H](C)[C@@H](O)[C@@H](C)[C@H](OC(C)=O)[C@@H]1C [3-phenoxyacetylhydrazonomethyl)-rifamysin SV, reference compound] | 2750 µg/mL (≈ 3.15 mM)
9 | CO[C@H]1/C=C/O[C@@]2(C)Oc3c(C)c(O)c4c(O)c(c(C=NNC(=O)Cc5ccccc5)c(O)c4c3C2=O)NC(=O)/C(C)=C\C=C\[C@H](C)[C@H](O)[C@@H](C)[C@@H](O)[C@@H](C)[C@H](OC(C)=O)[C@@H]1C [3-(phenylacetylhydrazonomethyl)-rifamycin SV, reference compound] | 4800 µg/mL (≈ 5.59 mM)
10 | CO[C@H]1/C=C/O[C@@]2(C)Oc3c(C)c(O)c4c(O)c(c(C=NNC(=O)c5ccncc5)c(O)c4c3C2=O)NC(=O)/C(C)=C\C=C\[C@H](C)[C@H](O)[C@@H](C)[C@@H](O)[C@@H](C)[C@H](OC(C)=O)[C@@H]1C [3-(isonicotinoylhydrazonomethyl)-rifamycin SV, reference compound] | 920 µg/mL (≈ 1.09 mM)

Same assay, conditions: Solubility soluble form

Row | Structure (SMILES) | solubility
11 | CO[C@H]1/C=C/O[C@@]2(C)Oc3c(C)c(O)c4c(O)c(c(C=NNC(=O)COc5ccccc5)c(O)c4c3C2=O)NC(=O)/C(C)=C\C=C\[C@H](C)[C@H](O)[C@@H](C)[C@@H](O)[C@@H](C)[C@H](OC(C)=O)[C@@H]1C [Example 15] | 128000 µg/mL (≈ 146 mM)
12 | CO[C@H]1/C=C/O[C@@]2(C)Oc3c(C)c(O)c4c(O)c(c(C=NNC(=O)Cc5ccccc5)c(O)c4c3C2=O)NC(=O)/C(C)=C\C=C\[C@H](C)[C@H](O)[C@@H](C)[C@@H](O)[C@@H](C)[C@H](OC(C)=O)[C@@H]1C [Example 14, 3-(phenylacetylhydrazonomethyl)-rifamycin SV] | 71000 µg/mL (≈ 82.8 mM)
13 | CO[C@H]1/C=C/O[C@@]2(C)Oc3c(C)c(O)c4c(O)c(c(C=NNc5ccc(-c6ccc(C)cc6)nn5)c(O)c4c3C2=O)NC(=O)/C(C)=C\C=C\[C@H](C)[C@H](O)[C@@H](C)[C@@H](O)[C@@H](C)[C@H](OC(C)=O)[C@@H]1C [Example 11, 3-[3'-(p-tolyl)-pyridazinyl-6'-hydrazonomethyl]-rifamycin SV] | 540 µg/mL (≈ 0.595 mM)
14 | CO[C@H]1/C=C/O[C@@]2(C)Oc3c(C)c(O)c4c(O)c(c(C=NOCCBr)c(O)c4c3C2=O)NC(=O)/C(C)=C\C=C\[C@H](C)[C@H](O)[C@@H](C)[C@@H](O)[C@@H](C)[C@H](OC(C)=O)[C@@H]1C [Example 10, 3-(2-bromethyloximinomethyl)-rifamycin SV] | > 100000 µg/mL
15 | CO[C@H]1/C=C/O[C@@]2(C)Oc3c(C)c(O)c4c(O)c(c(C=NNc5ccc(-c6ccc(C)c(C)c6)nn5)c(O)c4c3C2=O)NC(=O)/C(C)=C\C=C\[C@H](C)[C@H](O)[C@@H](C)[C@@H](O)[C@@H](C)[C@H](OC(C)=O)[C@@H]1C [Example 12, 3-[3'-(3",4"-dimethylphenyl)-pyridazinyl-6'-hydrazonomethyl]-rifamycin SV] | 540 µg/mL (≈ 0.586 mM)
16 | CCON=Cc1c2c(O)c3c(O)c(C)c4c(c3c1O)C(=O)[C@@](C)(O/C=C/[C@H](OC)[C@@H](C)[C@@H](OC(C)=O)[C@H](C)[C@H](O)[C@H](C)[C@@H](O)[C@@H](C)/C=C/C=C(/C)C(=O)N2)O4 [Example 9, 3-(ethyloximinomethyl)rifamycin SV] | > 100000 µg/mL
17 | CO[C@H]1/C=C/O[C@@]2(C)Oc3c(C)c(O)c4c(O)c(c(C=NNC(=O)c5ccncc5)c(O)c4c3C2=O)NC(=O)/C(C)=C\C=C\[C@H](C)[C@H](O)[C@@H](C)[C@@H](O)[C@@H](C)[C@H](OC(C)=O)[C@@H]1C [Example 13, 3-(isonicotinoylhydrazonomethyl)-rifamycin SV] | 168000 µg/mL (≈ 199 mM)

Test system: ill subjects treated with rifampicin
Assay: not given
Conditions: cited from earlier work

Row | Structure (SMILES) | unsuccessful therapeutic treatments caused by hepatobiliar alterations
18 | CO[C@H]1/C=C/O[C@@]2(C)Oc3c(C)c(O)c4c(O)c(c(/C=N/N5CCN(C)CC5)c(O)c4c3C2=O)NC(=O)/C(C)=C\C=C\[C@H](C)[C@H](O)[C@@H](C)[C@@H](O)[C@@H](C)[C@H](OC(C)=O)[C@@H]1C [rifampicin] | over 10%
